According to patent US20040110821A1, “GAL3 receptor antagonists for the treatment of affective disorders” (priority 2002, published 2004):
Read-outs that look alike come from different tables or passages of the source. Marks after values point to notes of the source that are not given here.

Legend:
human 5HT2A receptor = biological target: T1, human 5HT2A receptor (Homo sapiens, UniProt P28223); assay: Radioligand binding at human 5HT2A receptor; settings: read-out: h5HT2A Ki
T1 construct: expressed in transfected cells; host or cells: COS-7 cells, transient, vector pCEXV-3
Description: Human 5HT2; Receptor: The coding sequence of the human 5HT2A receptor was obtained from a human brain cortex cDNA library, and cloned into the cloning site of pCEXV-3 eukaryotic expression vector. This construct was transfected into COS-7 cells by the DEAE-dextran method (Cullen, 1987). Cells were harvested after 72 hours and lysed by sonication in 5 mM Tris-HCl, 5 mM EDTA, pH 7.5. The cell lysates were subjected to centrifugation at 1000 rpm for 5 minutes at 4° C., and the supernatant was subjected to centrifugation at 30,000×g for 20 minutes at 4° C. The pellet was suspended in 50 mM Tris-HCl buffer (pH 7.7 at room temperature) containing 10 mM MgSO4, 0.5 mM EDTA, and 0.1% ascorbate. The affinity of compounds at 5HT2A receptors were determined in equilibrium competition binding assays using [^3H]ketanserin (1 nM). Nonspecific binding was defined by the addition of 10 μM mianserin. The bound radioligand was separated by filtration through GF/B filters using a cell harvester.
(§1) Binding data were analyzed using nonlinear regression and statistical techniques available in the GraphPAD Prism package (San Diego, Calif.). Enzymatic assay data were derived from a standard curve of reference compound data.

Male Sprague-Dawley rats = assay: Rat Forced Swim Test (FST); format: in vivo; settings: for overall profile in the Forced Swim Test (conclusion in words): rat, in vivo
human GAL3 receptor = biological target: T2, human GAL3 receptor (Homo sapiens, UniProt O60755); assay: Radioligand binding at cloned human GAL3 receptor; settings: for Ki: read-out: hGAL3 Ki
T2 construct: expressed in transfected cells
T2 sequence (O60755 1-368): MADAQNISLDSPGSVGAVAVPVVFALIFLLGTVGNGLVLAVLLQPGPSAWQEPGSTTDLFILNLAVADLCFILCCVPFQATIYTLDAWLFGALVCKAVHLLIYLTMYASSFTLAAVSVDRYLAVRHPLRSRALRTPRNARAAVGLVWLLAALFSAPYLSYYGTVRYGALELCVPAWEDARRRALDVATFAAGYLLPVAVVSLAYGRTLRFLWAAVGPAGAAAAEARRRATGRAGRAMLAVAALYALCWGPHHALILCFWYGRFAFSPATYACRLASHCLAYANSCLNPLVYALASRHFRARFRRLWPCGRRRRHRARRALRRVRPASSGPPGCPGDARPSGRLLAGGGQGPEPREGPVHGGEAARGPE
Description: The present invention provides for a method of determining the binding affinity of a GAL3 antagonist, wherein the GAL3 antagonist is dissolved in a “suitable solvent”. A “suitable solvent” means one which permits the measurement of binding affinity of the GAL3 antagonist to the human GAL3 receptor at concentrations less than 1 μM, preferably less than 100 nM. Examples of solvents include, but are not limited to, DMSO, ethanol, N,N-dimethylacetamide, or water. For indolones, the preferred solvent is 3% DMSO (final concentration in the assay). For pyrimidines, the preferred solvent is 1% ethanol/0.09% polypuronic acid F-127 (final concentration in the assay). For any other type of compounds, the preferred solvent is the solvent which permits the measurement of binding affinity of a GAL3 antagonist at the lowest concentration. Once a suitable solvent is ascertained for the binding assay of the human GAL3 receptor, the same solvent is used in assays to determine the binding affinity for instance, at the GAL1 receptor.
The binding properties of the pyrimidines of the present invention were evaluated at the cloned human galanin receptors, GAL1, GAL2, and GAL3, using protocols described herein.
The binding properties of the indolones of the present invention were evaluated at the cloned human galanin receptors, GAL1, GAL2, and GAL3, using protocols described herein.
LM(tk-) cells were stably transfected with the human GAL1 or GAL3 receptor. CHO cells were stably transfected with the human GAL2 receptor.
cDNAs for the human and rat GAL1, and human and rat GAL3 receptors were transfected with a G-418 resistant gene into the mouse fibroblast LM(tk-) cell line by a calcium phosphate transfection method (Cullen, 1967). Stably transfected cells were selected with G-418. Human and rat GAL2 receptors were similarly transfected into CHO cells.
Membranes were harvested from stably transfected LM(tk-) cells. Adherent cells were washed twice in ice-cold phosphate buffered saline (138 mM NaCl, 8.1 mM Na2HPO4, 2.5 mM KCl, 1.2 mM KH2PO4, 0.9 mM CaCl2, 0.5 mM MgCl2, pH 7.4) and lysed by sonication in ice-cold sonication buffer (20 mM Tris-HCl, 5 mM EDTA, pH 7.7). Large particles and debris were cleared by low speed centrifugation (200×g, 5 min, 4° C.). Membranes were collected from the supernatant fraction by centrifugation (32,000×g, 18 min, 4° C.), washed with ice-cold hypotonic buffer, and collected again by centrifugation (32,000×g, 18 min, 4° C.). The final membrane pellet was resuspended by sonication into a small volume of ice-cold binding buffer (−1 ml for every 5 plates: 10 mM NaCl, 20 mM HEPES, 0.22 mM KH2PO4, 1.26 mM CaCl2, 0.81 mM MgSO4, pH 7.4). Protein concentration was measured by the Bradford method (Bradford, 1976) using Bio-Rad Reagent, with bovine serum albumin as a standard. Membranes were held on ice for up to one hour and used fresh, or flash frozen and stored in liquid nitrogen. Membranes were prepared similarly from CHO cells.
Galanin Receptors: Binding assays were performed according to the following published methods: human GAL3 (PCT International Publication No. WO 98/15570), human GAL1 (PCT International Publication No. WO 95/2260) human GAL2 (PCT International Publication No. WO 97/26853).
as §1

human 5HT1A receptor = biological target: T3, human 5HT1A receptor (Homo sapiens, UniProt P08908); assay: Radioligand binding at 5-HT1A receptor; settings: read-out: h5HT1A Ki
T3 construct: expressed in transfected cells; host or cells: COS-7 cells, transient, vector pCEXV-3
Description: 5-HT1r Receptor: The cDNA corresponding to the 5-HT1A receptor open reading frames and variable non-coding 5′- and 3′-regions, was cloned into the eukaryotic expression vector pCEXV-3. These constructs were transfected transiently into COS-7 cells by the DEAE-dextran method (Cullen, 1987), and harvested after 72 hours. Radioligand binding assays were performed as described above for the 5-HT2A receptor, except that ^3H-8-OH-DPAT was used as the radioligand and nonspecific binding was determined by the addition of 10 μM mianserin.
as §1

[1] = 0.3 mg/kg p.o., single administration 1 hr before 5 min test
[2] = 0.3 mg/kg p.o., single administration 1 hr before 5 min test, listed as EX34
[3] = 1 mg/kg p.o., single administration 1 hr before 5 min test
[4] = 1 mg/kg p.o., single administration 1 hr before 5 min test, listed as EX34
[5] = 3 mg/kg p.o., single administration 1 hr before 5 min test
[6] = 3 mg/kg p.o., single administration 1 hr before 5 min test, listed as EX34
[7] = 10 mg/kg p.o., single administration 1 hr before 5 min test
[8] = 10 mg/kg p.o., single administration 1 hr before 5 min test, listed as EX34
[9] = 1 mg/kg i.p., single injection 1 h before 5 min test
[10] = 3 mg/kg i.p., single injection 1 h before 5 min test
[11] = 10 mg/kg i.p., single injection 1 h before 5 min test

T1 sequence (P28223 whole entry): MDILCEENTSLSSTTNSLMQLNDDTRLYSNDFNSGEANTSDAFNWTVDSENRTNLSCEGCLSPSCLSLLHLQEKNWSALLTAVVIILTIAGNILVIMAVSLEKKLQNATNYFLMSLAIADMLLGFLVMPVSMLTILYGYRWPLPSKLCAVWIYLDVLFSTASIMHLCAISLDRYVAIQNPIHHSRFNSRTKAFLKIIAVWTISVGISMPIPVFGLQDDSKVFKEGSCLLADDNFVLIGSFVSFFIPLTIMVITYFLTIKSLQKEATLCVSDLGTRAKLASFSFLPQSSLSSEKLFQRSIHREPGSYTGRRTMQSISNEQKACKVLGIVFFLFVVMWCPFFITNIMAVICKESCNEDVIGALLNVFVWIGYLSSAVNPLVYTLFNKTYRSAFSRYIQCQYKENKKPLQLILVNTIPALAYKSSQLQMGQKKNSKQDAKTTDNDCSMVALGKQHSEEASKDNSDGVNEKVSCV
T3 sequence (P08908 whole entry): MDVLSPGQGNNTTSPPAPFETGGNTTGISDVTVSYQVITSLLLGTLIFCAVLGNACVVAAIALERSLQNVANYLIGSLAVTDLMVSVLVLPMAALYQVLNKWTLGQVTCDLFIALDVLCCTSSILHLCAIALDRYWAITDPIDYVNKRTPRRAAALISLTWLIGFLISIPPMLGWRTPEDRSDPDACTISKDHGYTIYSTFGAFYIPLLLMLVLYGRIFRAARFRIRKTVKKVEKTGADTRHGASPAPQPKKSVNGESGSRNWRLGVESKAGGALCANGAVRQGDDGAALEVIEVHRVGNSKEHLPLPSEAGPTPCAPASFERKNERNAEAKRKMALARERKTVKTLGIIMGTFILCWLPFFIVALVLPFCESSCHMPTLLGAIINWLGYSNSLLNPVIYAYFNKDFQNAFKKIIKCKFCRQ

## Cc1ccc(Nc2cc(N3CCCCC3)nc(N3CCN(c4ncccc4C(F)(F)F)CC3)n2)cc1 [Example 34]
Human 5HT2A receptor
  Ki: > 50 µM
Male Sprague-Dawley rats; [1]
  Climbing: 3.3 ± 0.7 counts
  Diving: not significantly altered
  Immobility: significantly decreased immobility
  Swimming: significant increase in swimming behavior
Male Sprague-Dawley rats; [2]
  Diving: 0.2 ± 0.1 counts
  Immobility: 45 ± 1.5^a counts
  Swimming: 11.6 ± 0.9^d counts
Male Sprague-Dawley rats; [3]
  Climbing: significant increase in climbing
  Diving: not significantly altered
  Immobility: significantly decreased immobility
  Swimming: significant increase in swimming behavior
Male Sprague-Dawley rats; [4]
  Climbing: 5.0 ± 0.8^c counts
  Diving: 0.3 ± 0.2 counts
  Immobility: 35 ± 1.9^b counts
  Swimming: 19.6 ± 1.3^d,e counts
Male Sprague-Dawley rats; [5]
  Climbing: 4.3 ± 0.8 counts
  Diving: not significantly altered
  Immobility: significantly decreased immobility
  Swimming: significant increase in swimming behavior
Male Sprague-Dawley rats; [6]
  Diving: 0.3 ± 0.3 counts
  Immobility: 35 ± 2.0^b counts
  Swimming: 20.8 ± 1.3^d,e counts
Male Sprague-Dawley rats; [7]
  Climbing: did not significantly alter swimming or climbing
  Diving: not significantly altered
  Immobility: did not significantly decrease in immobility
  Swimming: did not significantly alter swimming or climbing
Male Sprague-Dawley rats; [8]
  Climbing: 2.0 ± 0.4 counts
  Diving: 0.4 ± 0.3 counts
  Immobility: 49 ± 1.4 counts
  Swimming: 8.2 ± 1.2 counts
Male Sprague-Dawley rats
  overall profile in the Forced Swim Test (conclusion in words): produces an effect in the FST that resembles that of antidepressants
Human GAL3 receptor
  GAL3/GAL1 binding ratio (Ki GAL1 divided by Ki GAL3): 39
Human 5HT1A receptor
  Ki: > 50 µM

## O=C1C(=Nc2cccc(C(F)(F)F)c2)c2ccccc2N1c1ccccc1 [Example 92, 1-PHENYL-3-[[3-(TRIFLUOROMETHYL)PHENYL]IMINO]-1,3-DIHYDRO-2H-INDOL-2-ONE]
Human 5HT2A receptor
  Ki: > 50 µM
Male Sprague-Dawley rats; [9]
  Diving: 0.6±0.2 counts
  Immobility: 28 ± 1.0 counts
  Swimming: 20±1.1 counts
Male Sprague-Dawley rats; [10]
  Diving: 0.6±0.3 counts
  Swimming: 21±0.9 counts
Male Sprague-Dawley rats; [11]
  Diving: 0.5±0.5 counts
  Swimming: 18±0.9 counts
Male Sprague-Dawley rats; 30 mg/kg i.p., single injection 1 h before 5 min test
  Diving: 0.2±0.2 counts
Male Sprague-Dawley rats
  overall profile in the Forced Swim Test (conclusion in words): has antidepressant-like properties
Human GAL3 receptor; Table 7
  Ki: 0.038 µM
Human GAL3 receptor; Table 9
  Ki: 0.038 µM
Human 5HT1A receptor
  Ki: > 50 µM
